In PubChem BioAssay (NCI):
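Values below derive from 48-hour exposures of cells grown in 96-well plates, with endpoints linearly interpolated between the two concentrations bracketing the appropriate inhibition level. TGI: concentration producing complete growth inhibition.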

What was measured:
Test in all cases: NCI-60 cell line screen, 48 h
CAKI-1 renal = test system: CAKI-1 renal
NCI-H23 lung = test system: NCI-H23 lung
COLO 205 colon = test system: COLO 205 colon
U251 CNS = test system: U251 CNS
A549 NSCLC = test system: A549 NSCLC
UACC-257 melanoma = test system: UACC-257 melanoma
TK-10 renal = test system: TK-10 renal
MDA-MB-231 breast = test system: MDA-MB-231 breast
KM12 colon = test system: KM12 colon
ACHN renal = test system: ACHN renal

Cc1ccc(S(=O)(=O)N2CCc3cc(O)c([N+](=O)[O-])cc32)cc1
TGI (CAKI-1 renal): > 100 µM
TGI (NCI-H23 lung): > 100 µM
TGI (COLO 205 colon): > 100 µM
TGI (U251 CNS): > 100 µM
TGI (A549 NSCLC): > 100 µM
TGI (UACC-257 melanoma): > 100 µM
TGI (TK-10 renal): > 100 µM
TGI (MDA-MB-231 breast): > 100 µM
TGI (KM12 colon): > 100 µM
TGI (ACHN renal): > 100 µM

N#Cc1ccnc(C(=O)N2CCCC2C(=O)O)c1 (stereo unspecified)
TGI (CAKI-1 renal): > 100 µM
TGI (NCI-H23 lung): > 100 µM
TGI (COLO 205 colon): > 100 µM
TGI (U251 CNS): > 100 µM
TGI (A549 NSCLC): > 100 µM
TGI (UACC-257 melanoma): > 100 µM
TGI (TK-10 renal): > 100 µM
TGI (MDA-MB-231 breast): > 100 µM
TGI (KM12 colon): > 100 µM
TGI (ACHN renal): > 100 µM

CO[C@H](C)[C@](O)(C(=O)OCC1=CCN2CC[C@@H](O)[C@H]12)C(C)C
TGI (CAKI-1 renal): > 100 µM
TGI (NCI-H23 lung): > 100 µM
TGI (COLO 205 colon): > 100 µM
TGI (U251 CNS): > 100 µM
TGI (A549 NSCLC): > 100 µM
TGI (UACC-257 melanoma): > 100 µM
TGI (TK-10 renal): > 100 µM
TGI (MDA-MB-231 breast): > 100 µM
TGI (KM12 colon): > 100 µM
TGI (ACHN renal): > 100 µM

Oc1ccc(C[C@@H]2CN[C@H](Cc3ccc(O)c(Br)c3)CN2)cc1
TGI (CAKI-1 renal): > 100 µM
TGI (NCI-H23 lung): > 100 µM
TGI (COLO 205 colon): > 100 µM
TGI (U251 CNS): > 100 µM
TGI (A549 NSCLC): > 100 µM
TGI (UACC-257 melanoma): > 100 µM
TGI (TK-10 renal): > 100 µM
TGI (MDA-MB-231 breast): > 100 µM
TGI (KM12 colon): > 100 µM
TGI (ACHN renal): > 100 µM

CC1OC2OC3C(OCC(O)C3O)OC(=O)[C@]34CCC(C)(C)CC3C3=CCC5[C@@]6(C)C[C@H](O)[C@H](OC7OC(CO)C(O)C(O)C7OC7OC(COC(=O)CC(C)(O)CC(=O)OC1C(OC1OC(CO)C(O)C(O)C1O)C2O)C(O)C(O)C7O)[C@@](C)(CO)C6CC[C@@]5(C)[C@]3(C)CC4 (stereo partly specified)
TGI (CAKI-1 renal): 17.7 µM
TGI (NCI-H23 lung): 3.23 µM
TGI (COLO 205 colon): 4.52 µM
TGI (U251 CNS): 9.26 µM
TGI (A549 NSCLC): 0.293 µM
TGI (UACC-257 melanoma): 4.24 µM
TGI (TK-10 renal): 7.92 µM
TGI (MDA-MB-231 breast): 16.4 µM
TGI (KM12 colon): 8.24 µM
TGI (ACHN renal): 8.36 µM

CCOP(=O)(COCCn1nc(Br)c(=O)[nH]c1=O)OCC
TGI (CAKI-1 renal): > 100 µM
TGI (NCI-H23 lung): > 100 µM
TGI (COLO 205 colon): > 100 µM
TGI (U251 CNS): > 100 µM
TGI (A549 NSCLC): > 100 µM
TGI (UACC-257 melanoma): > 100 µM
TGI (MDA-MB-231 breast): > 100 µM
TGI (KM12 colon): > 100 µM
TGI (ACHN renal): > 100 µM

Brc1ccc2[nH]cc(-c3csc(-c4c[nH]c5ccc(Br)cc45)n3)c2c1
TGI (CAKI-1 renal): 5.31 µM
TGI (NCI-H23 lung): 6.34 µM
TGI (COLO 205 colon): 3.42 µM
TGI (U251 CNS): 3.61 µM
TGI (A549 NSCLC): 7 µM
TGI (UACC-257 melanoma): 9.05 µM
TGI (TK-10 renal): 8.19 µM
TGI (MDA-MB-231 breast): 3.38 µM
TGI (KM12 colon): 2.95 µM
TGI (ACHN renal): 4.8 µM

O=C(O)C12C3C4(C(=O)O)C1C1(C(=O)O)C2C3(C(=O)O)C41 (stereo unspecified)
TGI (CAKI-1 renal): > 100 µM
TGI (NCI-H23 lung): > 100 µM
TGI (COLO 205 colon): > 100 µM
TGI (U251 CNS): > 100 µM
TGI (A549 NSCLC): > 100 µM
TGI (UACC-257 melanoma): > 100 µM
TGI (TK-10 renal): > 100 µM
TGI (MDA-MB-231 breast): > 100 µM
TGI (KM12 colon): > 100 µM
TGI (ACHN renal): > 100 µM

COc1cc(/C=C2/C(=O)N(C(=O)c3ccccc3O)N=C2C)ccc1O
TGI (CAKI-1 renal): > 25.5 µM
TGI (COLO 205 colon): > 80.7 µM
TGI (U251 CNS): > 100 µM
TGI (A549 NSCLC): > 100 µM
TGI (UACC-257 melanoma): > 100 µM
TGI (TK-10 renal): > 100 µM
TGI (MDA-MB-231 breast): > 100 µM
TGI (KM12 colon): > 100 µM
TGI (ACHN renal): > 100 µM

Cn1c2ccccc2c2c3c(=O)[nH][nH]c(=O)c3c3c4ccccc4n(C)c3c21
TGI (CAKI-1 renal): > 100 µM
TGI (NCI-H23 lung): > 100 µM
TGI (COLO 205 colon): > 100 µM
TGI (U251 CNS): > 100 µM
TGI (A549 NSCLC): > 100 µM
TGI (UACC-257 melanoma): > 100 µM
TGI (TK-10 renal): > 100 µM
TGI (MDA-MB-231 breast): > 100 µM
TGI (KM12 colon): > 100 µM
TGI (ACHN renal): > 100 µM

CC12CCC(=O)[C@@]1(C)CCCC2=O (stereo partly specified)
TGI (CAKI-1 renal): > 100 µM
TGI (NCI-H23 lung): > 100 µM
TGI (COLO 205 colon): > 100 µM
TGI (U251 CNS): > 100 µM
TGI (A549 NSCLC): > 100 µM
TGI (UACC-257 melanoma): > 100 µM
TGI (TK-10 renal): > 100 µM
TGI (MDA-MB-231 breast): > 100 µM
TGI (KM12 colon): > 100 µM
TGI (ACHN renal): > 100 µM

COc1ccc(C(=C2C(=O)OC(=O)C2=C(C)C)c2ccc(OC)cc2)cc1
TGI (CAKI-1 renal): > 100 µM
TGI (NCI-H23 lung): > 100 µM
TGI (COLO 205 colon): > 100 µM
TGI (U251 CNS): > 100 µM
TGI (A549 NSCLC): > 100 µM
TGI (UACC-257 melanoma): > 100 µM
TGI (TK-10 renal): > 100 µM
TGI (MDA-MB-231 breast): > 100 µM
TGI (KM12 colon): > 100 µM
TGI (ACHN renal): > 100 µM

CC1=CC(O)CC(C)(C)C1/C=C/C(C)=C/C=C/C(C)=C/C=C/C=C(C)/C=C/C=C(C)/C=C/C1=C(C)CC(O)CC1(C)C (stereo unspecified)
TGI (CAKI-1 renal): 51.4 µM
TGI (NCI-H23 lung): 56.9 µM
TGI (COLO 205 colon): 38 µM
TGI (A549 NSCLC): > 100 µM
TGI (UACC-257 melanoma): 59.1 µM
TGI (TK-10 renal): > 100 µM
TGI (MDA-MB-231 breast): 30.1 µM
TGI (KM12 colon): > 100 µM
TGI (ACHN renal): 31.1 µM

COC(=O)c1ccc2cc(O)ccc2c1
TGI (CAKI-1 renal): > 100 µM
TGI (NCI-H23 lung): > 100 µM
TGI (COLO 205 colon): > 100 µM
TGI (U251 CNS): > 100 µM
TGI (A549 NSCLC): > 100 µM
TGI (UACC-257 melanoma): > 100 µM
TGI (TK-10 renal): > 100 µM
TGI (MDA-MB-231 breast): > 100 µM
TGI (KM12 colon): > 100 µM
TGI (ACHN renal): > 100 µM

NC(=O)c1ncn(C2OC(CO)C(O)C2O)c1NC(=S)NC(=O)c1ccccc1 (stereo unspecified)
TGI (CAKI-1 renal): > 100 µM
TGI (NCI-H23 lung): > 100 µM
TGI (COLO 205 colon): > 100 µM
TGI (U251 CNS): > 100 µM
TGI (A549 NSCLC): > 100 µM
TGI (UACC-257 melanoma): > 100 µM
TGI (TK-10 renal): > 100 µM
TGI (KM12 colon): > 100 µM
TGI (ACHN renal): > 100 µM

O=C(O)C(CS)N=Cc1nc(-c2ccccc2)oc1O (stereo unspecified)
TGI (NCI-H23 lung): > 100 µM
TGI (COLO 205 colon): > 100 µM
TGI (U251 CNS): > 100 µM
TGI (A549 NSCLC): > 100 µM
TGI (UACC-257 melanoma): > 100 µM
TGI (TK-10 renal): > 100 µM
TGI (ACHN renal): > 100 µM

O=C1c2c(Br)sc(Br)c2[C@H]2OC(=S)N[C@@H]12
TGI (CAKI-1 renal): 7.81 µM
TGI (NCI-H23 lung): 15.1 µM
TGI (COLO 205 colon): 5.58 µM
TGI (U251 CNS): 7.08 µM
TGI (A549 NSCLC): 37.5 µM
TGI (UACC-257 melanoma): 17.1 µM
TGI (TK-10 renal): 35 µM
TGI (MDA-MB-231 breast): 25 µM
TGI (KM12 colon): 38.8 µM
TGI (ACHN renal): 11.1 µM

CC(=O)Oc1ccc2c(c1)O/C(=C\c1ccc(O)cc1)C2=O
TGI (CAKI-1 renal): > 100 µM
TGI (NCI-H23 lung): > 100 µM
TGI (COLO 205 colon): > 100 µM
TGI (U251 CNS): > 100 µM
TGI (A549 NSCLC): > 100 µM
TGI (UACC-257 melanoma): > 100 µM
TGI (TK-10 renal): > 100 µM
TGI (MDA-MB-231 breast): > 100 µM
TGI (KM12 colon): > 100 µM
TGI (ACHN renal): > 100 µM

Nc1cc2nc(-c3ccccc3)cn2cn1
TGI (CAKI-1 renal): > 100 µM
TGI (NCI-H23 lung): > 100 µM
TGI (COLO 205 colon): > 100 µM
TGI (U251 CNS): > 100 µM
TGI (A549 NSCLC): > 100 µM
TGI (TK-10 renal): > 100 µM
TGI (MDA-MB-231 breast): > 100 µM
TGI (KM12 colon): > 100 µM
TGI (ACHN renal): > 100 µM

Cc1ccc(N2C(=O)/C(=C3\Sc4c(nc(C)n(C)c4=O)N3c3ccccc3)SC2=S)cc1
TGI (CAKI-1 renal): > 100 µM
TGI (NCI-H23 lung): > 100 µM
TGI (COLO 205 colon): > 100 µM
TGI (U251 CNS): > 100 µM
TGI (A549 NSCLC): > 100 µM
TGI (UACC-257 melanoma): > 100 µM
TGI (TK-10 renal): > 100 µM
TGI (KM12 colon): > 100 µM
TGI (ACHN renal): > 100 µM

O=C(O)Cn1c[n+](NC(=O)Cc2ccccc2)cn1
TGI (CAKI-1 renal): > 10 µM
TGI (NCI-H23 lung): > 10 µM
TGI (COLO 205 colon): > 10 µM
TGI (U251 CNS): > 10 µM
TGI (A549 NSCLC): > 10 µM
TGI (UACC-257 melanoma): > 10 µM
TGI (TK-10 renal): > 10 µM
TGI (MDA-MB-231 breast): > 10 µM
TGI (KM12 colon): > 10 µM
TGI (ACHN renal): > 10 µM
